Molecular target: T1, ICK (Homo sapiens, UniProt Q9UPZ9)
T1 construct: purchased Thermo Fisher Scientific (Life Technologies) SelectScreen
Assay: SelectScreen LanthaScreen
Type: binding
Settings: read-out: % displacement
Summary of the method: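 SelectScreen broad panel; activity (Z'LYTE, Adapta) plus binding formats. ATP: Km app for CSF1R Z'LYTE; 10 for CAMK1 Adapta. Readout = % per kinase.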

T1 sequence (Q9UPZ9 whole entry): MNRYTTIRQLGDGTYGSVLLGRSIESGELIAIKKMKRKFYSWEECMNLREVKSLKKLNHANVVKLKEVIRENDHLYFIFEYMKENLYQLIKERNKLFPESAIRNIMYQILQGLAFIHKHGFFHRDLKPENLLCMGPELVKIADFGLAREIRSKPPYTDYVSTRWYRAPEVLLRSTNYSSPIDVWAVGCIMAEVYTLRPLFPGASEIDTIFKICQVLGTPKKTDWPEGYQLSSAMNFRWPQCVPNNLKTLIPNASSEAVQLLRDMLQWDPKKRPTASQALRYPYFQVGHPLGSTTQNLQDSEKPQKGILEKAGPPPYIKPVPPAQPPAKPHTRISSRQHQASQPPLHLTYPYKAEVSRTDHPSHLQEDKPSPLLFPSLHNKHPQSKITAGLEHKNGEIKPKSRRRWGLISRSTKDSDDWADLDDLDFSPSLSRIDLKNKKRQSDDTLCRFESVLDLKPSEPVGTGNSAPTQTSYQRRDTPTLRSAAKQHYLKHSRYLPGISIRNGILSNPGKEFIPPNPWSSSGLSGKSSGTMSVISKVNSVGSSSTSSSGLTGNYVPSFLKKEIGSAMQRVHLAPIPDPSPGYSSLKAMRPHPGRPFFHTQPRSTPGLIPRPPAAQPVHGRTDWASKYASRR

Compound: CN(C(=O)CN1CCOCC1)c1ccc2sc3c(-c4cccc5c(=O)cc(N6CC7CCC(C6)O7)oc45)cccc3c2c1 [NU5455]
- inhibition at 1 µM: 0%
